{"source": "ChEMBL document CHEMBL1134303", "about": "“Systematic structure-based design and stereoselective synthesis of novel multisubstituted cyclopentane derivatives with potent antiinfluenza activity” (J Med Chem, 2001)", "target": "Neuraminidase (Influenza A virus (A/Puerto Rico/8/1934(H1N1)), UniProt P03468)", "sequence (P03468 whole entry)": "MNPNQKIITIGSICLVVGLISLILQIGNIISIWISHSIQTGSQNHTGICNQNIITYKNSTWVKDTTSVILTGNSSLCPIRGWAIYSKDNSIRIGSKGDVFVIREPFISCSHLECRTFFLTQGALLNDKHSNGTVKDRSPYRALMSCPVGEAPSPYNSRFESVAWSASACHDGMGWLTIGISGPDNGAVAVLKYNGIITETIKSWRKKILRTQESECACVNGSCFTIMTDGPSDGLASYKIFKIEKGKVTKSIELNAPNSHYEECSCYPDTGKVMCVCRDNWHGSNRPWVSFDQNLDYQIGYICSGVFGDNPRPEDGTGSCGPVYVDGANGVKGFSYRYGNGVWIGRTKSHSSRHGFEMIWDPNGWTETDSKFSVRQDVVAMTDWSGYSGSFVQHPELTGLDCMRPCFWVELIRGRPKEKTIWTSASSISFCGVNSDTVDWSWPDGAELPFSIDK", "assay": "Inhibitory activity against influenza A neuraminidase", "note": "pIC50: −log10 of the molar value.", "data": [{"smiles": "CCC(CC)[C@H](NC(C)=O)[C@@H]1C[C@@H](C(=O)O)C[C@H]1N=C(N)N", "values": [{"measurement": "pIC50", "result": "> 9.00"}]}, {"smiles": "CCC(CC)[C@H](NC(C)=O)[C@@H]1[C@H](O)[C@@H](C(=O)O)C[C@H]1NC(=N)N", "note": "[PERAMIVIR ANHYDROUS]", "values": [{"measurement": "pIC50", "result": "> 9.00"}]}]}
